US20190248834A1, “ENDOMORPHIN-2, TETRAPEPTIDE DERIVATIVES THEREOF, AND USES THEREOF” (priority 2016, published 2019)
Non-standard residues stand in square brackets, D forms with d. pGlu = O=C1CC[C@@H](C(=O)O)N1

What was measured:
Assay type in all cases: in vivo, human
[1] = system: psoriatic arthritis of the fingers; assay: Example 79: analgesic effect on psoriatic arthritis, topical; details: 0.5% (w/v) in WEP442, topical once daily
Source text: A subject, presented with psoriatic arthritis of the fingers that was particularly painful in the right index finger joint and proximal joint of the left thumb.

sunburn pain = assay: Example 30: analgesic effect on sunburn pain, topical; details: 1% (w/v) in WEP442, topical
Source text: A subject with severe sunburn of their anterior legs the day after exposure to sunlight without sunscreen protection, topically applied a composition containing 1% (w/v) of N-Ac-Tyr-Pro-Phe-Phe-NH2 (SEQ ID NO: 23) in WEP442 to both legs.

severe migraine = assay: Example 12: analgesic effect on severe migraine headache, topical; details: 1% (w/v) in WEP442, topical
Experimental: One day, at approximately 8 AM, visual aura and pain in the frontal scalp, forehead and frontal sinuses began and became very severe within 5-10 minutes. Thereafter, the subject topically applied a composition containing 1% (w/v) N-Ac-Tyr-Pro-Phe-Phe-NH2(SEQ ID NO: 23) in WEP442 to the involved area. […] Three (3) days later they remained free of any migraine headache and symptoms.

bruised finger = assay: Example 37: analgesic effect on bruised finger, topical; details: 1% (w/v) in WEP442, topical
Source text: A subject, severely bruised their left 5th finger while trying to close a basement window in their house. The pain was intense, and associated with subcutaneous hemorrhage.

[2] = system: chronic right shoulder pain; assay: Example 7: analgesic effect on shoulder pain, topical
Source text: A subject had chronic right shoulder pain. The subject was unable to lift their arm above chest level. The subject topically applied an anhydrous solution composition containing 0.5% (w/v) N-Ac-Tyr-Pro-Phe-Phe-NH2(SEQ ID NO: 23) in EP73, formulated as described in the Example 2, on their right shoulder at night. The next morning, 70% relief of pain was observed. The subject re-applied the composition at bedtime. The following morning, 85-90% relief was observed and they were able to lift their arm above their head with only minor discomfort.

knee pain = assay: Example 32: analgesic effect on knee pain after housework, topical; details: 1% (w/v) in WEP442, topical
Source text: A subject with discomforting knee pain in the evening after cleaning their own house for several hours topically applied a composition containing 1% (w/v) of N-Ac-Tyr-Pro-Phe-Phe-NH2 (SEQ ID NO: 23) in WEP442.

moderate lower back pain = assay: Example 23: analgesic effect on lower back pain, topical; details: 1% (w/v) in WEP442, topical
Source text: A subject, working as a house cleaner, complained of moderate lower back pain at the end of a work day.

[3] = system: chronic arthritic pain of left ankle; assay: Example 9: analgesic effect on ankle pain, topical
Source text: A subject had chronic arthritic pain of their left ankle. They were previously treated with prescription corticosteroid injections.
The subject topically applied an anhydrous composition containing 0.5% (w/v) N-Ac-Tyr-Pro-Phe-Phe-NH2 (SEQ ID NO: 23) in EP73, formulated as described in Example 2, at bedtime. The next morning, they observed approximately 90% improvement of pain. The subject topically re-applied the same composition at bedtime. The following entire day, they had about 95% pain improvement.

pharyngitis = assay: Example 64: analgesic effect on pharyngitis, oral
Experimental: A subject developed a respiratory tract infection, symptoms of which included coughing and pharyngitis. Swallowing of saliva was very painful for the subject. […] A solution containing 0.5% (w/v) of N-Pg-Tyr-Pro-Phe-Phe-NH2 (SEQ ID NO: 44) in a mixture of propylene glycol (10 parts by volume) and glycerol (90 parts by volume) was prepared. One teaspoonful of the solution was held in the posterior part of the mouth for about one minute and then swallowed. […] Such relief of painful swallowing lasted for about 3 hours. Repeated administrations provided the same results.

discomfort of hands = assay: Example 63: analgesic effect on wrist and hand pain, topical; details: 0.5% (w/v) in WEP442, topical
Source text: A person hairdresser, after several hours of styling hair, experienced substantial discomfort on their hands that interfered with further pursuit of their work.

[4] = system: knee pain, bulging meniscus; assay: Example 65: analgesic effect on pain from bulging sub-patellar meniscus, topical; details: 0.6% (w/v) in WEP442, topical
Source text: A landscape worker slipped on the grass and twisted their right knee, which became too painful for them to walk on without physical support. […] Surgical corrective procedures were scheduled for 2 weeks later. In the meantime, topical applications of the above solution as needed allowed them to move about with no discomfort.

[5] = system: post-operative knee soreness; assay: Example 70: analgesic effect on post-operative tenderness and soreness of knee, topical; details: 0.6% (w/v) in WEP442, topical
Source text: A person underwent surgical repair of a bulging meniscus of the right knee, after which there was substantial tenderness and soreness, particularly so upon their walking, which they were advised to do a few hours daily during the recovery period. Skin glue had been used for wound closure, which allowed for topical applications of a composition containing 0.6% (w/v) of N-Pg-Tyr-Pro-Phe-Phe-NH2 (SEQ ID NO: 44) in WEP442 to the entire knee including 5 surgical wound sites. […] Repeated topical applications provided freedom of movement throughout the day with negligible discomfort.

headache = assay: Example 44: analgesic effect on headache, topical
Source text: A subject, experienced a headache that began on the right temporofrontal area. Within about a half hour the headache pain area expanded to include the left temporofrontal area and both orbital areas. The intensity of pain increased simultaneously to a degree that caused them to remove themself from their sedentary occupation. Available to them was a composition containing 1% (w/v) of N-Pg-Tyr-Pro-Phe-Phe-NH2 (SEQ ID NO: 44) in WEP442, which they topically applied to all the above areas, keeping their eyes closed until the lids dried. Pain relief was detected after about 5 minutes, at which time a second application of the solution was made. Within another 5 minutes, pain relief was substantial, allowing them to return to their occupation.

[6] = 0.5% (w/v) in propylene glycol/glycerol, oral

Question: What does the source list for `CC(=O)N[C@@H](Cc1ccc(O)cc1)C(=O)N1CCC[C@H]1C(=O)N[C@@H](Cc1ccccc1)C(=O)N[C@@H](Cc1ccccc1)C(N)=O` [N-Ac-Tyr-Pro-Phe-Phe-NH2]?
Answer: duration of pain relief [1]: 8 h; pain relief [1]: complete relief of pain; duration of pain relief (sunburn pain): about 3 hours; pain relief (sunburn pain): completely relieved almost instantly; relief of migraine pain and all other symptoms (severe migraine): suddenly disappeared completely; time free of migraine headache and symptoms (severe migraine): ≥ 3 days; time to pain relief (severe migraine): 6 to 7 min; pain relief (bruised finger): complete relief of pain; time to pain relief (bruised finger): ≤ 15 s; relief of pain ([2]; 0.5% (w/v) in EP73, re-applied at bedtime, following morning): 85-90%; relief of pain ([2]; 0.5% (w/v) in EP73, topical at night, next morning): 70%; duration of pain relief (knee pain): 5 to 7 h; pain relief (knee pain): Total relief of pain; time to pain relief (knee pain): ≤ 1 min; pain relief (moderate lower back pain): almost complete relief of pain; time to pain relief (moderate lower back pain): 1 to 2 min; pain improvement ([3]; 0.5% (w/v) in EP73, re-applied at bedtime, following entire day): about 95%; improvement of pain ([3]; 0.5% (w/v) in EP73, topical at bedtime, next morning): approximately 90%

Question: What does the source list for “N-Pg-Tyr-Pro-Phe-Phe-NH2 ([pGlu]YPFF-NH2; SMILES NC(=O)[C@H](Cc1ccccc1)NC(=O)[C@H](Cc1ccccc1)NC(=O)[C@@H]1CCCN1C(=O)[C@H](Cc1ccc(O)cc1)NC(=O)[C@@H]1CCC(=O)N1)”?
Answer: relief of painful swallowing (pharyngitis; 0.5% (w/v) in propylene glycol/glycerol 10:90, one teaspoonful held in mouth and swallowed): swallowing of liquids and semi-solid food could be done without pharyngeal pain; duration of relief (pharyngitis; [6]): about 3 hours; time to relief (pharyngitis; [6]): ≤ 10 min; relief of discomfort (discomfort of hands): complete relief; duration of pain relief [4]: lasted throughout the working day; pain relief [4]: complete relief of pain; time to pain relief [4]: 3 to 4 min; duration of pain relief [5]: 2 to 3 h; pain relief [5]: rapid, almost complete, relief of pain sensations; pain relief (headache; 1% (w/v) in WEP442, after second application): Total relief of pain; time to detected pain relief (headache; 1% (w/v) in WEP442, first topical application): about 5 minutes; recurrence (headache; 1% (w/v) in WEP442, topical): no recurrence of pain
